Measured values: patent publication US20260365646A1, “AKT1 MODULATORS” (Alterome Therapeutics, Inc., priority 2022, published 2026)

biological target: T1, full length AKT E17K (Homo sapiens, UniProt P31749, E17K); test: NanoBRET Target Engagement (TE) Intracellular Kinase Assay; assay type: cell-based; settings: not given
T1 construct: host or cells: HEK-293 (ATCC CRL-1573)
Source text: The NanoBRET™ Target Engagement (TE) Intracellular Kinase Assays are based on the NanoBRET™ System (Promega Corporation), an energy transfer technique designed to measure molecular proximity in living cells. The NanoBRET™ TE Assays measure the apparent affinity of test compounds by competitive displacement of the NanoBRET™ tracer compound, which is a cell permeable molecule engineered to be reversibly bound to a NanoLuc® luciferase-kinase fusion expressed in cells. For compound screening, when a test compound binds to the selected kinase, the BRET signal is attenuated. […] All cells were evaluated for viability prior to transfection and optimization of the transfection was done prior to experimentation. […] Following transfection, cells were washed and resuspended in Opti-MEM. NanoBRET assays were performed in white, 384-well plates (Corning) at a density of 2×10^5 cells/well. All example compounds were prepared as concentrated stock solutions in DMSO (Sigma-Aldrich). Compounds are dissolved in DMSO to make 10 mM stock solution. […] A Labcyte ECHO 550 compound dispenser was used to facilitate compound transfer directly to cells. Cells were equilibrated for 2 hr with energy transfer probes and example compound prior to BRET measurements. […] For target engagement analysis, the energy transfer probes were added to the cells at concentrations optimized for the target in question (AKT E17K). Following compound incubation, NanoBRET NanoGlo Substrate (Promega Cat #Ni57D) and Extracellular Nanoluc Inhibitor (Promega Cat #N235C) was added according to the manufacturer's recommended protocol, and luminescence was measured on Envision Reader (Perkin Elmer) Multimode Luminometer equipped with 450 nm BPfilter (donor) and 600 nm LPfilter (acceptor), using 0.5 s integration time. Milli-BRET units (mBU) are calculated by multiplying the raw BRET values by 1000. Apparent tracer affinity values (EC50) were determined using the sigmoidal dose-response (variable slope). Competitive displacement data were then plotted and data were fit to determine the EC50 value for each example compound.

T1 sequence (P31749 whole entry E17K): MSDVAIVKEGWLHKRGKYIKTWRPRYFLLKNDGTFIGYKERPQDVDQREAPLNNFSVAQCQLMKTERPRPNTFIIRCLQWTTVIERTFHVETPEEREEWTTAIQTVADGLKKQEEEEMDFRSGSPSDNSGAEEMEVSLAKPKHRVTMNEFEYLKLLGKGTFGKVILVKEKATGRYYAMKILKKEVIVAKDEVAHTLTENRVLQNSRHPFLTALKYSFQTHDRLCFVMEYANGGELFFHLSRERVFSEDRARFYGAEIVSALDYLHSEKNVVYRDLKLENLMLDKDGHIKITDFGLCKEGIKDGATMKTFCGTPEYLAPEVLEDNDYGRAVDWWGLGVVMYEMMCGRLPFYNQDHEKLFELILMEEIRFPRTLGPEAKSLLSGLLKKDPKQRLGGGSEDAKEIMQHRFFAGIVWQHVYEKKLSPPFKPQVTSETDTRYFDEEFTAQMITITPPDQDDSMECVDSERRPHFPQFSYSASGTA

SMILES | EC50 [nM]
COc1c(N2CCN(Cc3ccc(-n4c(-c5cccnc5N)nc5cccnc54)cc3)CC2)c(=O)c1=O [Example 1, 3-(4-(4-(2-(2-Aminopyridin-3-yl)-3H-imidazo[4,5-b]pyridin-3-yl)benzyl)piperazin-1-yl)-4-methoxycyclobut-3-ene-1,2-dione] | > 600
COc1c(NCc2ccc(-n3c(-c4cccnc4N)nc4cccnc43)cc2)c(=O)c1=O [Example 2, 3-((4-(2-(2-Aminopyridin-3-yl)-3H-imidazo[4,5-b]pyridin-3-yl)benzyl)amino)-4-methoxycyclobut-3-ene-1,2-dione] | > 600
COc1c(NC2CCN(Cc3ccc(-n4c(-c5cccnc5N)nc5cccnc54)cc3)CC2)c(=O)c1=O [Example 3, 3-((1-(4-(2-(2-Aminopyridin-3-yl)-3H-imidazo[4,5-b]pyridin-3-yl)benzyl)piperidin-4-yl)amino)-4-methoxycyclobut-3-ene-1,2-dione] | 15 to 60
Nc1ncccc1-c1nc2ccc(-c3ccccc3)nc2n1-c1ccc(CNc2c(O)c(=O)c2=O)cc1 [Example 5, 3-((4-(2-(2-Aminopyridin-3-yl)-5-phenyl-3H-imidazo[4,5-b]pyridin-3-yl)benzyl)amino)-4-hydroxycyclobut-3-ene-1,2-dione] | > 600
COc1c(N2CCN(Cc3ccc(-n4c(-c5cccnc5N)nc5ccc(-c6cccc(NC(C)=O)c6)nc54)cc3)CC2)c(=O)c1=O [Example 7, N-(3-(2-(2-Aminopyridin-3-yl)-3-(4-((4-(2-methoxy-3,4-dioxocyclobut-1-en-1-yl)piperazin-1-yl)methyl)phenyl)-3H-imidazo[4,5-b]pyridin-5-yl)phenyl)acetamide] | 15 to 60
COc1c(N2CCN(Cc3ccc(-n4c(-c5cccnc5N)nc5cc(-c6ccccc6)cnc54)cc3)CC2)c(=O)c1=O [Example 9, 3-(4-(4-(2-(2-Aminopyridin-3-yl)-6-phenyl-3H-imidazo[4,5-b]pyridin-3-yl)benzyl)piperazin-1-yl)-4-methoxycyclobut-3-ene-1,2-dione] | 60 to 600
CC(C)Oc1c(NC2CCN(Cc3ccc(-n4c(-c5cccnc5N)nc5ccc(-c6ccccc6)nc54)cc3)CC2)c(=O)c1=O [Example 11, 3-((1-(4-(2-(2-aminopyridin-3-yl)-5-phenyl-3H-imidazo[4,5-b]pyridin-3-yl)benzyl)piperidin-4-yl)amino)-4-isopropoxycyclobut-3-ene-1,2-dione] | 15 to 60
CCOc1c(NC2CCN(Cc3ccc(-n4c(-c5cccnc5N)nc5ccc(-c6ccccc6)nc54)cc3)CC2)c(=O)c1=O [Example 12, 3-((1-(4-(2-(2-Aminopyridin-3-yl)-5-phenyl-3H-imidazo[4,5-b]pyridin-3-yl)benzyl)piperidin-4-yl)amino)-4-ethoxycyclobut-3-ene-1,2-dione] | 15 to 60

More lines, now with the values ahead:

EC50 [nM] | SMILES
60 to 600 | Nc1ncccc1-c1nc2ccc(-c3ccccc3)nc2n1-c1ccc(CN2CCC(Nc3c(OC4CCCC4)c(=O)c3=O)CC2)cc1 [Example 14, 3-((1-(4-(2-(2-Aminopyridin-3-yl)-5-phenyl-3H-imidazo[4,5-b]pyridin-3-yl)benzyl)piperidin-4-yl)amino)-4-(cyclopentyloxy)cyclobut-3-ene-1,2-dione]
60 to 600 | Nc1ncccc1-c1nc2ccc(-c3ccccc3)nc2n1-c1ccc(CN2CCC(Nc3c(OC4CCCC4)c(=S)c3=O)CC2)cc1 [Example 15, 2-((1-(4-(2-(2-Aminopyridin-3-yl)-5-phenyl-3H-imidazo[4,5-b]pyridin-3-yl)benzyl)piperidin-4-yl)amino)-3-(cyclopentyloxy)-4-thioxocyclobut-2-en-1-one]
60 to 600 | Nc1ncccc1-c1nc2ccc(-c3ccccc3)nc2n1-c1ccc(CN2CCC(Nc3c(OC4CCCC4)c(=S)c3=S)CC2)cc1 [Example 16, 3-((1-(4-(2-(2-Aminopyridin-3-yl)-5-phenyl-3H-imidazo[4,5-b]pyridin-3-yl)benzyl)piperidin-4-yl)amino)-4-(cyclopentyloxy)cyclobut-3-ene-1,2-dithione]
> 600 | Nc1ncccc1-c1nc2ccc(-c3ccccc3)nc2n1-c1ccc(CN2CCC(Nc3c(O)c(=O)c3=O)CC2)cc1 [Example 18, 3-((1-(4-(2-(2-Aminopyridin-3-yl)-5-phenyl-3H-imidazo[4,5-b]pyridin-3-yl)benzyl)piperidin-4-yl)amino)-4-hydroxycyclobut-3-ene-1,2-dione]
> 600 | CN(C)c1c(NC2CCN(Cc3ccc(-n4c(-c5cccnc5N)nc5ccc(-c6ccccc6)nc54)cc3)CC2)c(=O)c1=O [Example 19, 3-((1-(4-(2-(2-Aminopyridin-3-yl)-5-phenyl-3H-imidazo[4,5-b]pyridin-3-yl)benzyl)piperidin-4-yl)amino)-4-(dimethylamino)cyclobut-3-ene-1,2-dione]
60 to 600 | CNc1c(NC2CCN(Cc3ccc(-n4c(-c5cccnc5N)nc5ccc(-c6ccccc6)nc54)cc3)CC2)c(=O)c1=O [Example 20, 3-((1-(4-(2-(2-Aminopyridin-3-yl)-5-phenyl-3H-imidazo[4,5-b]pyridin-3-yl)benzyl)piperidin-4-yl)amino)-4-(methylamino)cyclobut-3-ene-1,2-dione]
15 to 60 | COc1c(N2CCN(Cc3ccc(-n4c(-c5cccnc5N)nc5ccc(-c6ccccc6)nc54)cc3)CC2)c(=O)c1=O [Example 21, 3-(4-(4-(2-(2-Aminopyridin-3-yl)-5-phenyl-3H-imidazo[4,5-b]pyridin-3-yl)benzyl)piperazin-1-yl)-4-methoxycyclobut-3-ene-1,2-dione]
> 600 | Nc1ncccc1-c1nc2ccc(-c3ccccc3)nc2n1-c1ccc(CN2CCN(c3c(O)c(=O)c3=O)CC2)cc1 [Example 22, 3-(4-(4-(2-(2-Aminopyridin-3-yl)-5-phenyl-3H-imidazo[4,5-b]pyridin-3-yl)benzyl)piperazin-1-yl)-4-hydroxycyclobut-3-ene-1,2-dione]

same assay, conditions: read-out: NanoBRET AKT1E17K EC50; HEK-293 cells transfected with NanoLuc-AKT E17K; competitive displacement of NanoBRET tracer; 2 hr equilibration; 10-point 3-fold dilution

SMILES | EC50 [nM]
COc1c(NC2CCN(Cc3ccc(-n4c(-c5cccnc5N)nc5ccc(-c6cccc(NC(C)=O)c6)nc54)cc3)CC2)c(=O)c1=O [Example 8, N-(3-(2-(2-Aminopyridin-3-yl)-3-(4-((4-((2-methoxy-3,4-dioxocyclobut-1-en-1-yl)amino)piperidin-1-yl)methyl)phenyl)-3H-imidazo[4,5-b]pyridin-5-yl)phenyl)acetamide] | < 15
COc1c(NC2CCN(Cc3ccc(-n4c(-c5cccnc5N)nc5cc(-c6ccccc6)cnc54)cc3)CC2)c(=O)c1=O [Example 10, 3-((1-(4-(2-(2-Aminopyridin-3-yl)-6-phenyl-3H-imidazo[4,5-b]pyridin-3-yl)benzyl)piperidin-4-yl)amino)-4-methoxycyclobut-3-ene-1,2-dione] | < 15

The remaining lines, values ahead:

EC50 [nM] | SMILES
< 15 | [2H]C([2H])([2H])Oc1c(NC2CCN(Cc3ccc(-n4c(-c5cccnc5N)nc5ccc(-c6ccccc6)nc54)cc3)CC2)c(=O)c1=O [Example 13, 3-((1-(4-(2-(2-Aminopyridin-3-yl)-5-phenyl-3H-imidazo[4,5-b]pyridin-3-yl)benzyl)piperidin-4-yl)amino)-4-(methoxy-d3)cyclobut-3-ene-1,2-dione]
< 15 | COc1c(NC2CCN(Cc3ccc(-n4c(-c5cccnc5N)nc5ccc(-c6ccccc6)nc54)cc3)CC2)c(=O)c1=O [Example 17, 3-((1-(4-(2-(2-Aminopyridin-3-yl)-5-phenyl-3H-imidazo[4,5-b]pyridin-3-yl)benzyl)piperidin-4-yl)amino)-4-methoxycyclobut-3-ene-1,2-dione]
